Tests used:
Format in all cases: cell-based
human Mincle = molecular target: T1, human Mincle (Homo sapiens, UniProt Q9ULY5); test: Human CLR antagonist screening, NF-κB SEAP reporter in HEK293 cells; conditions: antagonist mode, Ami 1 μM, +TDB 5 μg/mL, No Sample 6, Control− 1
T1 construct: expressed in transfected cells; host or cells: HEK293
Method: Toll-Like Receptor (TLR), NOD-Like Receptor (NLR) and C-Type Lectin Receptor (CLR) stimulation were tested by assessing NF-κB activation in HEK293 cells expressing a given TLR, NLR or CLR. The activity of the test articles was tested at one concentration and compared to control ligands. These steps were performed in triplicate.
hMincle: Trehalose-6,6-dibehenate (TDB) at 10 μg/mL Antagonist: 5 μg/mL.
In a 96-well plate (200 μL total volume) containing the appropriate cells (50,000-75,000 cells/well), 20 μL of the test article or the positive control ligand was added to the wells. For the antagonist assay, the test article was incubated with the cells, at 37° C. with 5% CO2, for 30 minutes prior to the addition of the positive control ligand to the wells. The media added to the wells was designed for the detection of NF-κB induced SEAP expression. After a 16-24 hr incubation the optical density (OD) was read at 650 nm on a Molecular Devices SpectraMax 340PC absorbance detector.

human MDA-5 = molecular target: T2, human MDA-5 (Homo sapiens, UniProt Q9BYX4); test: Human RLR antagonist screening, IRF3 luciferase reporter in HEK293 cells; conditions: antagonist mode, Ami 1 μM
T2 construct: expressed in transfected cells; host or cells: HEK293
T2 sequence (Q9BYX4 1-1025): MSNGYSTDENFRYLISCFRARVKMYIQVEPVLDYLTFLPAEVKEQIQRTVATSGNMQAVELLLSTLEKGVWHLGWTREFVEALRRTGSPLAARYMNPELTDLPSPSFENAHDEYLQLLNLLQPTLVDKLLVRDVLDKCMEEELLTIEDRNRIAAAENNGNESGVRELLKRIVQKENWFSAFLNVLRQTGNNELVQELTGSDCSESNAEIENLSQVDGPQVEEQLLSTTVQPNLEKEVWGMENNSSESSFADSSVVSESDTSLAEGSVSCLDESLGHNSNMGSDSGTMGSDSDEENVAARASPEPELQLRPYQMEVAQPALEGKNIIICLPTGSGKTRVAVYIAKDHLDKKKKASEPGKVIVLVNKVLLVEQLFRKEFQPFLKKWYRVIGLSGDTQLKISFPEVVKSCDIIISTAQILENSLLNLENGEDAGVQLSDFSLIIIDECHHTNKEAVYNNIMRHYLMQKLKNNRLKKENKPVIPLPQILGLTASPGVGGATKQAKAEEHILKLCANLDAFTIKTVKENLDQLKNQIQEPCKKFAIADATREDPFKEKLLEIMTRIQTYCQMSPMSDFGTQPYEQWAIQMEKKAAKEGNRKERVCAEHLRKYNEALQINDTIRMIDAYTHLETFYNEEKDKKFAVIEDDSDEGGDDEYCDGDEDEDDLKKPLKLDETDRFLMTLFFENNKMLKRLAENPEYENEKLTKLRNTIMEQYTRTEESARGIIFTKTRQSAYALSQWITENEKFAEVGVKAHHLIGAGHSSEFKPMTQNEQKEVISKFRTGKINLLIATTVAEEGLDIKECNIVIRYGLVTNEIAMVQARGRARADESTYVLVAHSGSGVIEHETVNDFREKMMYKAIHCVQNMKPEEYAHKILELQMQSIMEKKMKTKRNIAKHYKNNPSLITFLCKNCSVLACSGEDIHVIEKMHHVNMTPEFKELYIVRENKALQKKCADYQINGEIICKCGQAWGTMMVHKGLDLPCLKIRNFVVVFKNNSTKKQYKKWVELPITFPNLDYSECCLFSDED
Method: (§1) RIG-I and MDA-5 stimulation were tested by assessing IRF3 activation in HEK293 cells expressing human RIG-I or MDA-5 genes. The activity of the test articles was tested on human RIG-I and MDA-5 expressing cells as a potential agonist or antagonist. The test articles were evaluated at one concentration and compared to control ligands. This step was performed in triplicate. The results are provided as Relative Luminescence Units (RLUs). RIG-I/MDA-5: Poly(I:C)/LyoVec at 1 μg/mL Antagonist: 500 ng/mL. 5′ppp-dsRNA/LyoVec at 1 μg/mL Antagonist: 500 ng/mL. hIFNα at 1000 IU/mL. Antagonist: 100 IU/mL. In a 96-well plate (200 μL total volume) containing the appropriate cells (25,000-50,000 cells/well), 20 μL of the test article or of the positive control ligand was added to the wells. For the antagonist assay, the test article was incubated with the cells, at 37° C. with 5% CO2, for 30 minutes prior to the addition of the positive control ligand to the wells. After 20 hour incubation, activation of the IRF pathway was monitored using a luciferase detection assay. Luciferase activity was assayed in triplicate from the supernatant of the induced cells, and the relative luminescence units (RLUs) are detected by a Promega GloMax Luminometer. Fold induction (ratio of average induced value to average non-induced value).

human RIG-I = molecular target: T3, human RIG-I (Homo sapiens, UniProt O95786); test: as above; conditions: antagonist mode, Ami 1 μM
T3 construct: expressed in transfected cells; host or cells: HEK293
Method: as §1

HEK293/Null = test: Antagonist screening on RIG-I−/MDA-5− control cell line stimulated with hIFNα; conditions: stimulated with recombinant hIFNα at 100 IU/mL
Method: RIG-I and MDA-5 stimulation were tested by assessing IRF3 activation in HEK293 cells expressing human RIG-I or MDA-5 genes. The activity of the test articles was tested on human RIG-I and MDA-5 expressing cells as a potential agonist or antagonist. The test articles were evaluated at one concentration and compared to control ligands. This step was performed in triplicate. The results are provided as Relative Luminescence Units (RLUs).
RIG-I^−/MDA-5^− Cell Lines: HEK293/Null: Control for human RIG-I and MDA-5 Poly(I:C)HMW/LyoVec at 1 μg/mL. Antagonist: 500 ng/mL 5′ppp-dsRNA/LyoVec at 1 μg/mL. Antagonist: 500 ng/mL hIFNα at 1000 IU/mL. Antagonist: 100 IU/mL.
In a 96-well plate (200 μL total volume) containing the appropriate cells (25,000-50,000 cells/well), 20 μL of the test article or of the positive control ligand was added to the wells. For the antagonist assay, the test article was incubated with the cells, at 37° C. with 5% CO2, for 30 minutes prior to the addition of the positive control ligand to the wells. After 20 hour incubation, activation of the IRF pathway was monitored using a luciferase detection assay. Luciferase activity was assayed in triplicate from the supernatant of the induced cells, and the relative luminescence units (RLUs) are detected by a Promega GloMax Luminometer.

T3 sequence (O95786 whole entry): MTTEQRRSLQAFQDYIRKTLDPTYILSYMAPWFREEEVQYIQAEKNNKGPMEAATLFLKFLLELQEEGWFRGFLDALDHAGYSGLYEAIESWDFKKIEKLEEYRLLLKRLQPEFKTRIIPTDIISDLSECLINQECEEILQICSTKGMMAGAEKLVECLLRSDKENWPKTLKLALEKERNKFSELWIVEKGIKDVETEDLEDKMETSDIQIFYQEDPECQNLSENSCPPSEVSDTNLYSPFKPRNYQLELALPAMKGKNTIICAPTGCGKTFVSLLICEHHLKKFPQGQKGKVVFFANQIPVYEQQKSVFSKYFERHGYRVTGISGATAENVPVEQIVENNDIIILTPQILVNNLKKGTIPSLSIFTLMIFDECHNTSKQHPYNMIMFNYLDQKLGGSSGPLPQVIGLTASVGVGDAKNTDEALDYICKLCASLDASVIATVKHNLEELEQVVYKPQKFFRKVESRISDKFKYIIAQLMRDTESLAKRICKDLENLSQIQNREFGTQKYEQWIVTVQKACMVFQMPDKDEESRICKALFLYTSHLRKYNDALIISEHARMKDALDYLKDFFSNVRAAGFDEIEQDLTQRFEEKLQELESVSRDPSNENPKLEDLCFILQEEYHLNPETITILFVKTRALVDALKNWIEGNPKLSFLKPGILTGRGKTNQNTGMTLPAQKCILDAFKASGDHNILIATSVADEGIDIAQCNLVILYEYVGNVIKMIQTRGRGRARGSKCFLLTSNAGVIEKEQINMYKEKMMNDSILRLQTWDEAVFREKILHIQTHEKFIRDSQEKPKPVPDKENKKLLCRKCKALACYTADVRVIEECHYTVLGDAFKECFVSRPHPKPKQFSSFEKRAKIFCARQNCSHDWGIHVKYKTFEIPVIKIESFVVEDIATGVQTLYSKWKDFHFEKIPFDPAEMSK
T1 sequence (Q9ULY5 whole entry): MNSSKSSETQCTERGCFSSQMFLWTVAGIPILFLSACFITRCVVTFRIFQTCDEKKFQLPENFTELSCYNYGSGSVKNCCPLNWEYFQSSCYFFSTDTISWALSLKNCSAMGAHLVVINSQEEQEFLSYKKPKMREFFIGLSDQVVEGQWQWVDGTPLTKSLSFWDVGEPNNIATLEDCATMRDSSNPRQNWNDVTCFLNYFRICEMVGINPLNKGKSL

CN(C)CCC=C1c2ccccc2CCc2ccccc21 [Amitriptyline]
Fold Induction (human Mincle): slight inhibitory effect
Fold Induction (human Mincle; listed as Ami): 5
Fold induction (ratio of average induced value to average non-induced value) (human MDA-5; 5′ppp-dsRNA/LyoVec 500 ng/mL, No Sample 1, Control− 1): 1
Fold induction (ratio of average induced value to average non-induced value) (human MDA-5; Poly(I:C)/LyoVec 500 ng/mL, No Sample 9, Control− 1): 10
Fold induction (ratio of average induced value to average non-induced value) (human MDA-5; hIFNα 100 IU/mL, No Sample 255, Control− 1, listed as Ami): 192
Fold induction (ratio of average induced value to average non-induced value) (human RIG-I; 5′ppp-dsRNA/LyoVec 500 ng/mL, No Sample 6, Control− 1): 6
Fold induction (ratio of average induced value to average non-induced value) (human RIG-I; Poly(I:C)/LyoVec 500 ng/mL, No Sample 16, Control− 1): 16
effect on RIG-I−/MDA-5− control cell line (HEK293/Null): inhibitory effect
